Consider eleven molecules from patent US8895744B2, “Alfa-carboline inhibitors of NPM-ALK, RET, and Bcr-Abl” (Universita' Degli Studi di Milano-Bicocca, priority 2008, dated 2014).

In assay [1] the target is T1, BaF3 cells transformed with the oncogenic fusion protein RET-PTC2 (Homo sapiens, UniProt P07949).
T1 construct: fused on or other part: P10644 (cAMP-dependent protein kinase type I-alpha regulatory subunit)
Kind of assay: Tritiated thymidine uptake cell proliferation assay, BaF3 RET/PTC. It counts as cell-based. To be noted: 3[H]-thymidine uptake, 72 h; read-out: BaF RET/PTC IC50. The method, then:
Inhibition of the Proliferation of RET-positive Cells
(§1) Method: Tritiated Thymidine Uptake Cell Proliferation Assay
(§2) The following procedure was used with parent untransformed BaF3 cells, BaF3 cells transformed with the oncogenic fusion protein RET-PTC2, or RET-negative 11937 cells. The parent untransformed BaF3 cells and RET-negative U937 cells are used as controls. Cells were seeded in U-bottomed 96-well plates at 10 000 cells/well in a volume of 100 μL in supplemented medium. In the case of the parent untransformed BaF3 cells, the medium was supplemented with IL-3. Serial dilutions of inhibitors were added to the appropriate wells and volumes adjusted to 200 μL. Controls were treated with the equivalent volume of vehicle, DMSO, alone. Plates were incubated at 37° C. for 72 h. ^3[H]-thymidine (1 μCi/well) was added for the last 16 h of incubation. Cells were harvested on to paper filters and ^3[H]-thymidine incorporation was measured using a β scintillation counter (1430 MicroBeta, Wallac, Turku, Finland). The 50% inhibitory concentration (IC50) was defined as the concentration of inhibitor, expressed in micromolar, that gave a 50% decrease in ^3[H]-thymidine uptake compared with controls.

A further assay addresses T2, Recombinant Ret protein (Homo sapiens, UniProt P07949).
T2 construct: made in house; host or cells: Sf9 cells (baculovirus)
The assay is described as follows: RET kinase inhibitory activity, ELISA-based in vitro kinase assay. To be noted: purified Ret, 0.3 mM ATP. It counts as biochemical. On the technique in general: An ELISA detects its analyte on a solid surface through an enzyme-linked reagent.

The target of assay [2] is T3, BaF3 cells transformed with the oncogenic fusion protein NPM/ALK (Homo sapiens, UniProt Q9UM73).
T3 construct: fused on or other part: P06748 (Nucleophosmin)
T3 sequence (Q9UM73 whole entry, change not shown, the tested form may be a part): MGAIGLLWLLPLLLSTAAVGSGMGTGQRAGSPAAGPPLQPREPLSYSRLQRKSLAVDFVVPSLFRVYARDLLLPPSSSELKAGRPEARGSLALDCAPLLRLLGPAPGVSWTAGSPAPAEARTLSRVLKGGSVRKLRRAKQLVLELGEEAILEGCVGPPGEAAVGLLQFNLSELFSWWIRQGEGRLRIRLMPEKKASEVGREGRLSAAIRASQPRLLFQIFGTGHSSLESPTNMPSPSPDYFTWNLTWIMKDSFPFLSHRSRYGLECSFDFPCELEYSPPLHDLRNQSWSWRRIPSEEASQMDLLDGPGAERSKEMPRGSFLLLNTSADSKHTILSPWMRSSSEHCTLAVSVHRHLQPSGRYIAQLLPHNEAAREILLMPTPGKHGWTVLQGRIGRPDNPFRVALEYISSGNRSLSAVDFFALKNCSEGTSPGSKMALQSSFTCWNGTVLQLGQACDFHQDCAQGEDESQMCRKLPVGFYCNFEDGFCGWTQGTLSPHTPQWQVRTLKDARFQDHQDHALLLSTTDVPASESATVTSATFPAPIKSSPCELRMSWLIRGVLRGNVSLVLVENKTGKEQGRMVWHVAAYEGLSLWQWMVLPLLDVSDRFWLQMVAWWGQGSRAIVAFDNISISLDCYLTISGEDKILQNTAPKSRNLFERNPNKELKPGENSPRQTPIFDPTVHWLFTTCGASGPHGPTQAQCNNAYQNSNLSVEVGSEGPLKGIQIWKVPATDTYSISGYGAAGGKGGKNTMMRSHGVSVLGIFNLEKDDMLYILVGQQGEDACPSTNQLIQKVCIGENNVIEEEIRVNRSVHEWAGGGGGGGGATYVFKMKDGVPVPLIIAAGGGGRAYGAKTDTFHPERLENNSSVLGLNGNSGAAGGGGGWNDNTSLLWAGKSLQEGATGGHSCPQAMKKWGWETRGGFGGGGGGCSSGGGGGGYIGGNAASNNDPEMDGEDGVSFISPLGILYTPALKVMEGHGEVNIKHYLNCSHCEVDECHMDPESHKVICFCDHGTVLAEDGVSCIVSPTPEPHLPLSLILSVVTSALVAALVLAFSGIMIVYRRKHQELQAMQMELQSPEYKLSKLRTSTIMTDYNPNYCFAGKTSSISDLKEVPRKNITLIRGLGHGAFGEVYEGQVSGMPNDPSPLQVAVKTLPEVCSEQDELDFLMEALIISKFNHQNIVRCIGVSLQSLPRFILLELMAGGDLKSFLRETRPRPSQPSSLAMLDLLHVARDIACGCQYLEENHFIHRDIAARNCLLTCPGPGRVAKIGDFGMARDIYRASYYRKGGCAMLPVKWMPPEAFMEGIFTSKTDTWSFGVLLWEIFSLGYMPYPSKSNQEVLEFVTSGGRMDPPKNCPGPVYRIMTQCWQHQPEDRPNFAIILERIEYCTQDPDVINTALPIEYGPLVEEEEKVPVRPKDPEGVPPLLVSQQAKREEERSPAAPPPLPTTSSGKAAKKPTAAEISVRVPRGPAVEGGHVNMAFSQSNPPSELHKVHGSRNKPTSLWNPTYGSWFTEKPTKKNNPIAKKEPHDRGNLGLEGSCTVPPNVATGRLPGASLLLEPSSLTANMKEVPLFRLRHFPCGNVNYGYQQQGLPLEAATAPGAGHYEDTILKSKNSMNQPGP
The assay is described as follows: Tritiated thymidine uptake cell proliferation assay, BaF3 NPM/ALK. It counts as cell-based. The settings on record: 3[H]-thymidine uptake, 72 h; read-out: BaF NPM/ALK IC50. The method in brief: (§3)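 Cells were seeded at 10 000/well with serial inhibitor dilutions or DMSO vehicle and incubated 72 h at 37 °C, with ^3[H]-thymidine (1 μCi/well) added for the final 16 h. Incorporation was read by β scintillation counting. IC50 (μM) is the concentration giving a 50% decrease in uptake versus controls.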

Assay [3] addresses T4, Recombinant Abl T315I protein (Homo sapiens, UniProt P00519, T315I).
T4 construct: made in house; host or cells: Sf9 cells (baculovirus)
Kind of assay: Abl T315I mutant kinase inhibitory activity, ELISA-based in vitro kinase assay. It counts as biochemical. To be noted: purified Abl T315I, 0.3 mM ATP. In outline: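 His-tagged human Abl T315I from Sf9 cells, preincubated 10 min at room temperature with inhibitor, then reacted on peptide-coated plates with 0.3 mM ATP, 1 mM MnCl2, 5 mM MgCl2 in 50 mM Tris pH 7.5. Phosphotyrosine detected by anti-pTyr/HRP ELISA at 450 nm; IC50 as 50% inhibition vs control.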

Assay [4] deals with parent untransformed BaF3 cells. The assay is described as follows: Tritiated thymidine uptake cell proliferation assay, parental BaF3 (control). It counts as cell-based. To be noted: Mus musculus, 3[H]-thymidine uptake, 72 h, medium with IL-3, read-out: BaF parental IC50. The method in brief:
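Control lines were parental BaF3 in IL-3-supplemented medium and ALK-, Abl- or RET-negative U937, seeded at 10 000 cells/well with serial inhibitor dilutions for 72 h at 37 °C. ³H-thymidine (1 μCi/well) was added for the final 16 h; IC50 (μM) is the concentration halving uptake versus DMSO.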

The target in the next assay is T5, Recombinant ALK kinase (Homo sapiens, UniProt Q9UM73).
T5 construct: made in house; host or cells: Sf9 insect cells (baculovirus)
T5 sequence (Q9UM73 19-1620): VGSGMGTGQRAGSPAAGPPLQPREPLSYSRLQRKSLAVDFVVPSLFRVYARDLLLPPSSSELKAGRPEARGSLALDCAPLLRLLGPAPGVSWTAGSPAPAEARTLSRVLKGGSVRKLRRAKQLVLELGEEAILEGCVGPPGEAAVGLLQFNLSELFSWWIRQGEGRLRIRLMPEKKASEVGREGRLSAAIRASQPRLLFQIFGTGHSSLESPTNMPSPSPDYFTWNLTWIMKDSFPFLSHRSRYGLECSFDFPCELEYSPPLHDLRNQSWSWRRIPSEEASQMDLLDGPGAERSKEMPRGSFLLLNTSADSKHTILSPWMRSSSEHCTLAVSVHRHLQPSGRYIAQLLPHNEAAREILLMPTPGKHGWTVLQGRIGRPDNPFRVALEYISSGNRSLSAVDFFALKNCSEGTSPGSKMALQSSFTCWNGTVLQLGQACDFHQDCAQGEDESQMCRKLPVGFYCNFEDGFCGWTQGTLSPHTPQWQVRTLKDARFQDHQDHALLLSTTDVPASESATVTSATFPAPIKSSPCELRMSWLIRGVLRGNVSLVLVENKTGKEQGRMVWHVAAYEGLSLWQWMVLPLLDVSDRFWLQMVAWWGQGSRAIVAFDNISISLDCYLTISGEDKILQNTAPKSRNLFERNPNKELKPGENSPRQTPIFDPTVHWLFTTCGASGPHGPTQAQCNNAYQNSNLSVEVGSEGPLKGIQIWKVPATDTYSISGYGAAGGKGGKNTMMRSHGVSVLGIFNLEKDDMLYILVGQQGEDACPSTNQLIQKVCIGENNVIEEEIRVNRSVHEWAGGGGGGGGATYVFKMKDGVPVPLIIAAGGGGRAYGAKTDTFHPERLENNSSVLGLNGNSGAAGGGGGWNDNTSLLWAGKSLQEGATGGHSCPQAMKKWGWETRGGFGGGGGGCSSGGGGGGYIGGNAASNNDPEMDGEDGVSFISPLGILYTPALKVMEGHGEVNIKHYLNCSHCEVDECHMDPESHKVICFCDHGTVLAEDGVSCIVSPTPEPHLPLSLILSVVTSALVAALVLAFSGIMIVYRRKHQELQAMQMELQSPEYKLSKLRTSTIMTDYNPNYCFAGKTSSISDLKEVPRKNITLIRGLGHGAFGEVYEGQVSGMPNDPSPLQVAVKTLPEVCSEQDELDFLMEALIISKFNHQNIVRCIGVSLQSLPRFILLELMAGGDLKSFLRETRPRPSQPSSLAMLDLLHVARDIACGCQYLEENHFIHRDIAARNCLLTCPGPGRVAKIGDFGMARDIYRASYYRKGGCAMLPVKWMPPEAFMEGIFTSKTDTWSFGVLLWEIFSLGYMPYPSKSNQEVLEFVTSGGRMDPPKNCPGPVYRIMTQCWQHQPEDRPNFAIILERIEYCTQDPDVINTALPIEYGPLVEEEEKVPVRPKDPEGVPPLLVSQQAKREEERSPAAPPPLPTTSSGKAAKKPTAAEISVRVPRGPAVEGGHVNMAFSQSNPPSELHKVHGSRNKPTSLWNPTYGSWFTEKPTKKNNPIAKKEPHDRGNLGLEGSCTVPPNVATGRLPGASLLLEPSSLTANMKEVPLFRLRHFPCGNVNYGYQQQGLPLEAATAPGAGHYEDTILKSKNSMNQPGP
Kind of assay: ALK kinase inhibitory activity, ELISA-based in vitro kinase assay. It counts as biochemical. To be noted: purified rALK, 0.3 mM ATP, read-out: ALK IC50. The method in brief: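 Sf9-expressed, purified recombinant ALK phosphorylated a plate-coated peptide substrate with 0.3 mM ATP, Mn2+/Mg2+, pH 7.5, 15 min at 30° C, after 10 min inhibitor preincubation. Phosphotyrosine was detected by anti-pTyr ELISA (TMB, A450); IC50 in μM is the concentration giving 50% inhibition relative to control.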

The target of assay [5] is BaF3 cells transformed with the oncogenic fusion protein bcr-abl (Homo sapiens, UniProt P00519). Kind of assay: Tritiated thymidine uptake cell proliferation assay, BaF3 BCR/ABL. It counts as cell-based. The settings on record: 3[H]-thymidine uptake, 72 h; read-out: BaF BCR/ABL IC50. As for the experimental part: (§4) Inhibition of the Proliferation of Bcr/Abl Positive Cells
as §1
as §2, with “protein bcr-abl, Abl-negative U937 cells,” for “protein RET-PTC2,”, “or Bcr-abl positive LAMA-84” for “or RET-negative 11937”, “and Abl-negative” for “and RET-negative”, “in ^3H-thymidine” for “in ^3[H]-thymidine”

Assay [6] concerns NPM/ALK positive KARPAS-299 cells. The assay is described as follows: Tritiated thymidine uptake cell proliferation assay, KARPAS-299. It counts as cell-based. The settings on record: 3[H]-thymidine uptake, 72 h, read-out: K299 (NPM/ALK+) IC50. As for the experimental part:
Inhibition of the proliferation of NPM/ALK positive cells
as §1
as §2, with “NPM/ALK, NPM/ALK positive SUDHL-1 cells, ALK-negative U937 cells, NPM/ALK positive KARPAS-299” for “RET-PTC2, or RET-negative 11937”, “Alk-negative” for “RET-negative”

Assay [7] has as its system NPM/ALK positive SUDHL-1 cells. The assay is described as follows: Tritiated thymidine uptake cell proliferation assay, SUDHL-1. It counts as cell-based. To be noted: 3[H]-thymidine uptake, 72 h. The method in brief: as §3
The test system of assay [8] is Bcr-abl positive LAMA-84 cells. The assay is described as follows: Tritiated thymidine uptake cell proliferation assay, LAMA-84. To be noted: Homo sapiens, 3[H]-thymidine uptake, 72 h. It counts as cell-based. As for the experimental part:
as §4, §1
as §2, with “protein bcr-abl, Abl-negative U937 cells,” for “protein RET-PTC2,”, “or Bcr-abl positive LAMA-84” for “or RET-negative 11937”, “and Abl-negative” for “and RET-negative”, “in ^3H-thymidine” for “in ^3[H]-thymidine”

Molecules are shown by their SMILES.

T2 sequence (P07949 29-1114): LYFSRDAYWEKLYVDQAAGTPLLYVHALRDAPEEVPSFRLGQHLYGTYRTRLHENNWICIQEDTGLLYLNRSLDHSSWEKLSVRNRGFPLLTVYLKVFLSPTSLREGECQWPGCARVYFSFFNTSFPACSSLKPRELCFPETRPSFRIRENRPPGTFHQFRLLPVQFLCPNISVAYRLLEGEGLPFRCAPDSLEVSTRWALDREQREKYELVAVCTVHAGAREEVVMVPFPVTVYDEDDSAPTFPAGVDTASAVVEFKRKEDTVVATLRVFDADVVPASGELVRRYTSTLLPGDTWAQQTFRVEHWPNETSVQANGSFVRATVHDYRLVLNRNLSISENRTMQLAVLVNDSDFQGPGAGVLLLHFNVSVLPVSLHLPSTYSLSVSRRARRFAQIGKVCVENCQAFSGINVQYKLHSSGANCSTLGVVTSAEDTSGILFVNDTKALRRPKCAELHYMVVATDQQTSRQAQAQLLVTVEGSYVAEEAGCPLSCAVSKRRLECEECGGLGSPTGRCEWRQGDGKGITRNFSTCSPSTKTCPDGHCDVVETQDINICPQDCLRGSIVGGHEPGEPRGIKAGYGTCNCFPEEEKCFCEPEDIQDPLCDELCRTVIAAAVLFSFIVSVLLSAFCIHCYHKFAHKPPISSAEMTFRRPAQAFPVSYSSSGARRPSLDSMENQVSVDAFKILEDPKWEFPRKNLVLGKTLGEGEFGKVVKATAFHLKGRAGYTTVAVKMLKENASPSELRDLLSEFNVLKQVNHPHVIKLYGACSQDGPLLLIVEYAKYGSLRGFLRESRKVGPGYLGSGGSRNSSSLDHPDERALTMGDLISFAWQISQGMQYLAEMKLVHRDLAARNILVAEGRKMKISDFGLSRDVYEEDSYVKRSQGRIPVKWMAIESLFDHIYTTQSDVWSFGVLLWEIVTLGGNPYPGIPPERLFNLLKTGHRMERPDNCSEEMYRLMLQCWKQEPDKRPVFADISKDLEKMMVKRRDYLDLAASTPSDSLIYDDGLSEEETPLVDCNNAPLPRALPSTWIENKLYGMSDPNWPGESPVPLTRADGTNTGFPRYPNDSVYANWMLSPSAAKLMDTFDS

On to `CN1CCN(Cc2ccc(C(=O)Nc3nc(-c4ccc5[nH]c6ncccc6c5c4)cs3)cc2)CC1` [R222], for which the GI50 in assay [1] is 1.6 µM; in [2], 1.5 µM; in [5] it was 2.5 µM. In addition, the IC50 at Recombinant Ret protein is 8.8 ± 1.6 µM; in [3], greater than 100 µM; in assay [4] it was 1.5 µM; on Recombinant ALK kinase it was 88 ± 4.3 µM.

As for `O=C(CBr)c1ccc2[nH]c3ncccc3c2c1` [R228], the values for the GI50 in [1], in assay [2] and in assay [5] were 11 µM, 8 µM and 18 µM, respectively. Moreover, the IC50 was found to be 16 µM on Recombinant Ret protein, 13 ± 4.6 µM in [3] and 13 µM in [4].

With `Clc1cnc2[nH]c3ccc(Br)cc3c2c1` [R252, 6-bromo-3-chloro-9H-pyrido[2,3-b]indole], the figures for the IC50 (in assay [6]; in [4]; at Recombinant ALK kinase) were greater than 20 µM, greater than 20 µM and 1.7 ± 0.4 µM, respectively. Besides, the GI50 in assay [2] and in [5] was greater than 20 µM throughout.

`CN(C)CCSCC(=O)c1ccc2[nH]c3ncccc3c2c1` [R263]: the IC50 at Recombinant Ret protein was greater than 100 µM; in [7], 13 µM; in [3], greater than 100 µM; in [4] it was greater than 25 µM; on Recombinant ALK kinase, greater than 100 µM. Further, the GI50 in assay [2] and in assay [5] was greater than 25 µM throughout.

Regarding `O=C(CSc1ccccn1)c1ccc2[nH]c3ncccc3c2c1` [R264], the IC50 at Recombinant Ret protein turned out to be 24 ± 6.1 µM; in [7], 24 µM; in [3], 49 ± 1.1 µM; in [4], 19 µM; on Recombinant ALK kinase, 13 ± 0.58 µM. Besides, the GI50 amounted to 13 µM in [2] and 23 µM in [5].

For the molecule `O=C(NCCc1ccc2[nH]c3ncc(Cl)cc3c2c1)c1ccccc1` [R265, N-(2-(3-chloro-9H-pyrido[2,3-b]indol-6-yl)ethyl)benzamide], the IC50 at Recombinant Ret protein was 26 ± 4.7 µM; in assay [7], greater than 25 µM; in assay [3] it was 54 ± 43 µM; in assay [4], greater than 25 µM; at Recombinant ALK kinase it was 40 ± 1.9 µM. The GI50 in [2] and in assay [5] was greater than 25 µM in each case.

Take `O=[N+]([O-])/C=C/c1ccc2[nH]c3ncc(Cl)cc3c2c1` [R266, 3-chloro-6-(2′-nitrovinyl)-9H-pyrido[2,3-b]indole]: the IC50 on Recombinant Ret protein came to 4.6 ± 0.39 µM; in assay [7], 0.81 µM; in assay [3], 9.8 ± 0.67 µM; in assay [4], 3.4 µM; at Recombinant ALK kinase, 3.3 ± 0.4 µM. The GI50 is 3.4 µM in assay [2] and 2 µM in assay [5].

For `COc1ccc(CNC(=O)CCC(=O)c2ccc3[nH]c4ncc(Cl)cc4c3c2)cc1` [R304, 4-(3-Chloro-9H-pyrido[2,3-b]indol-6-yl)-N-(4-methoxybenzyl)-4-oxobutyramide], the IC50 in assay [8] is 1.6 µM; in [7] it was 8.4 µM; in [3] it was 5 µM; in assay [4] it was 19 ± 7 µM. Besides, in [2], the GI50 worked out at 2.6 ± 1 µM.

For `O=C(CSc1ccccc1)c1ccc2[nH]c3nc(Cl)ccc3c2c1` [R306, 1-(2-Chloro-9H-pyrido[2,3-b]indol-6-yl)-2-phenylsulfanylethanone], the IC50 worked out at 1.3 µM at Recombinant Ret protein; 1.4 µM in assay [8]; 5.7 µM in [7]; 3.5 ± 0.03 µM in [3]; 25 ± 3 µM in assay [4]; 0.8 ± 0.3 µM on Recombinant ALK kinase. The GI50 in assay [2] was found to be 7.3 ± 0.3 µM.

On to `COc1ccc(-c2ccc3[nH]c4nc(-c5ccc(OC)cc5)ccc4c3c2)cc1` [R311, 2,6-di(4-methoxyphenyl)-9H-pyrido[2,3-b]indole], for which the IC50 in assay [8] was 55 µM; in [7] it was 32 µM; in assay [3], 8.3 µM; in assay [4], greater than 100 µM. For the same molecule, in assay [2], the GI50 was found to be 15 ± 3 µM.

On to `C(=C\c1cnc2[nH]c3ccc(-c4ccc(CN5CCOCC5)cc4)cc3c2c1)/c1ccccc1` [R314, 6-(4-(morpholin-4-yl)methylphenyl)-3-(2′-phenylethenyl)-9H-pyrido[2,3-b]indole], for which the IC50 is 2.1 µM in assay [8], 2.1 µM in assay [7] and greater than 50 µM in assay [3]. Also, the GI50 in assay [2] was found to be 1.6 ± 0.1 µM.
